Key:
D(3) dopamine receptor = D(3) dopamine receptor (Rattus norvegicus, UniProt P19020); assay: Displacement of [3H]-spiroperidol from rat D3 receptor expressed in HEK293 cells assessed as inhibition constant by Cheng-Prusoff equation analysis
D(2) dopamine receptor [1] = biological target: D(2) dopamine receptor (Homo sapiens, UniProt P14416); assay: biochemical
D(2) dopamine receptor [2] = biological target: D(2) dopamine receptor (Rattus norvegicus, UniProt P61169); assay: biochemical
Description: Displacement of [3H]-spiroperidol from rat D2L receptor expressed in HEK293 cells assessed as inhibition constant by Cheng-Prusoff equation analysis

Structure (SMILES) | Ki (D(3) dopamine receptor) [nM] | EC50 (D(2) dopamine receptor [1]) [nM] | Ki (D(2) dopamine receptor [2]) [nM]
CCCN(CC(=O)N1CCN(C(=O)CN(CCC)[C@H]2CCc3c(O)cccc3C2)CC1)[C@H]1CCc2c(O)cccc2C1 | 115 |  | 
CCCN(CCc1cc(O)c(CCN(CCC)[C@H]2CCc3nc(N)sc3C2)cc1O)[C@H]1CCc2nc(N)sc2C1 | 6.87 | 34.4 | 
CCCN(CCc1ccc(CCN(CCC)[C@H]2CCc3nc(N)sc3C2)cc1)[C@H]1CCc2c(O)cccc2C1 | 2.15 |  | 4.91
CCCN(CCN1CCN(CCN(CCC)[C@H]2CCc3c(O)cccc3C2)CC1)[C@H]1CCc2c(O)cccc2C1 | 3.56 |  | 12
CCCN(CCc1ccc(CCN(CCC)[C@H]2CCc3c(O)cccc3C2)cc1)[C@H]1CCc2c(O)cccc2C1 | 3.86 |  | 3.88
